Earlier results on three compounds are cited in paper PMC8657489, “Identification of VEGF Signaling Inhibition-Induced Glomerular Injury in Rats through Site-Specific Urinary Biomarkers” (International Journal of Molecular Sciences, 2021).

The test system of data set [1] is patients. More on the design: method as in PMID 24574832. The note with it: patients receiving Sunitinib.
The test system of data set [2] is glomerular endothelial cells and podocytes. Further details: method as in PMID 17726104. To be noted: rats.
The subject of data set [3] is patients. The note with it: human, in vivo.

On to `CCN(CC)CCNC(=O)c1c(C)[nH]c(/C=C2\C(=O)Nc3ccc(F)cc32)c1C` [Sunitinib], for which the renal adverse effects result in data set [1] is “proteinuria and renal insufficiency were reported”.
As to `COc1cc2c(Nc3ccc(Br)cc3F)ncnc2cc1OCC1CCN(C)CC1` [vandetanib], the glomerular morphological changes entry in data set [2] was “not only the loss of fenestration in glomerular endothelial cells, but also morphological changes in podocytes”.
With “Bevacizumab: monoclonal antibody against VEGF-A, also known as Avastin”, in data set [3], the “patients who developed proteinuria” value was 21~64% and the “proteinuria considered severe cases (grade 3–4)” value is 2.1–11.9%.
